Two molecules from ChEMBL document CHEMBL1149186, “Triacylglycerols based on 2-(N-tert-butoxycarbonylamino)oleic acid are potent inhibitors of pancreatic lipase” (J Med Chem, 2004) can be followed below.

Test [1] addresses T1, Gastric triacylglycerol lipase (Homo sapiens) (UniProt P07098).
T1 sequence (whole entry): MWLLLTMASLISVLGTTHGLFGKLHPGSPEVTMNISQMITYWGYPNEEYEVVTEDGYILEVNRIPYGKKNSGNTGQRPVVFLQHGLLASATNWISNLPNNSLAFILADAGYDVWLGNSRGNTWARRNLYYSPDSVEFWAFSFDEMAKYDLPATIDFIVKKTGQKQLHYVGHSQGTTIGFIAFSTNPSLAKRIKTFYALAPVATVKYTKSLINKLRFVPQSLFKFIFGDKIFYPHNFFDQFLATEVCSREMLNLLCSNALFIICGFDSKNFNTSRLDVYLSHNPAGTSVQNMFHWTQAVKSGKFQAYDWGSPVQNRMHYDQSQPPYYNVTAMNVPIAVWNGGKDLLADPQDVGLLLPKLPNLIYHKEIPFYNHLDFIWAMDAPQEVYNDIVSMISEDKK
The test is described as follows: Inhibition constant (molar fraction of compound) on human gastric lipase (HGL) at a constant surface pressure of 17 […]. The conditions noted are these: Stomach.

Test [2] has as its target T1, Gastric triacylglycerol lipase (Homo sapiens). The test can be described thus: Inhibition constant (molar fraction of compound) on human gastric lipase (HGL) at a constant surface pressure of 27 […]. The conditions noted are these: Stomach.
Test [3] addresses T2, Pancreatic triacylglycerol lipase (Homo sapiens) (UniProt P16233).
T2 sequence (whole entry): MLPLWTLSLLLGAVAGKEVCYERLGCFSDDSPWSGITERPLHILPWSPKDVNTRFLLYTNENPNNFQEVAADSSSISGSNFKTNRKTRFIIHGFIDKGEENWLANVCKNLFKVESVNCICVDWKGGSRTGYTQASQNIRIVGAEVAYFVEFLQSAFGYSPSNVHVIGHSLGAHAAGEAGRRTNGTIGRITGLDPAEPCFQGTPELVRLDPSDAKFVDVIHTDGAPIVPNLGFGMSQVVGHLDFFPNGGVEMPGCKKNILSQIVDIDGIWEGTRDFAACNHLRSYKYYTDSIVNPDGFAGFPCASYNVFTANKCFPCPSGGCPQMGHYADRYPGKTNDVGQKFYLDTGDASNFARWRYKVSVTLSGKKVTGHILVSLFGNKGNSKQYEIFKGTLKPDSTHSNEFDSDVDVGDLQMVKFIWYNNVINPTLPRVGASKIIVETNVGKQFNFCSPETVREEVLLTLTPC
The test can be described thus: Inhibition constant (molar fraction of compound) on human pancreatic lipase (HPL) at a constant surface pressure of 14 […].

For test [4], the target named is T2, Pancreatic triacylglycerol lipase (Homo sapiens). The test can be described thus: Inhibition constant (molar fraction of compound) on human pancreatic lipase (HPL) at a constant surface pressure of 25 […].

On to `CCCCCCCC/C=C\CCCCCC[C@H](NC(=O)OC(C)(C)C)C(=O)OCC(COC(=O)[C@H](CCCCCC/C=C\CCCCCCCC)NC(=O)OC(C)(C)C)OC(=O)[C@H](CCCCCC/C=C\CCCCCCCC)NC(=O)OC(C)(C)C`, for which the Alpha 50 (molar fraction) in test [1] was found to be 0.15; in test [2] it was 0.057; in test [3] it was 0.009; in test [4], 0.003.
Turning to `CCCCCCCC/C=C\CCCCCC[C@H](NC(=O)OC(C)(C)C)C(=O)OCC(C)(COC(=O)[C@H](CCCCCC/C=C\CCCCCCCC)NC(=O)OC(C)(C)C)OC(=O)[C@H](CCCCCC/C=C\CCCCCCCC)NC(=O)OC(C)(C)C`, the Alpha 50 (molar fraction) in test [2] was determined as 0.104; in test [4], 0.002.
